In ChEMBL document CHEMBL1141020, “Anthranilimide-based glycogen phosphorylase inhibitors for the treatment of type 2 diabetes: 1. Identification of 1-amino-1-cycloalkyl carboxylic acid headgroups” (Bioorg Med Chem Lett, 2009):

What was measured:
[1] = AUC (0 to infinity) in Sprague-Dawley rat at 1 mg/kg, po; assay type: ADME, organism-based; set-up: time infinity, dose 1 mg/kg, route oral; settings: plasma
[2] = Oral bioavailability in Sprague-Dawley rat at 10 mg/kg; assay type: ADME, organism-based; settings: in vivo
[3] = Half life in Sprague-Dawley rat at 10 mg/kg, po; assay type: ADME, organism-based; set-up: dose 10 mg/kg, route oral; settings: in vivo
[4] = Clearance in Sprague-Dawley rat at 10 mg/kg, po or 2.5 mg/kg, iv; assay type: ADME, organism-based; settings: in vivo
[5] = Volume of distribution at steady state in Sprague-Dawley rat at 10 mg/kg, po or 2.5 mg/kg, iv; assay type: ADME, organism-based; settings: in vivo, read-out: Vdss
[6] = Clearance in Beagle dog at 5 mg/kg, po or 1 mg/kg, iv; assay type: ADME, organism-based, Canis lupus familiaris; settings: in vivo
[7] = AUC (0 to infinity) in Beagle dog at 1 mg/kg, po; assay type: ADME, organism-based, Canis lupus familiaris; set-up: time infinity, dose 1 mg/kg, route oral; settings: plasma
[8] = Oral bioavailability in Beagle dog at 5 mg/kg; assay type: ADME, organism-based, Canis lupus familiaris; settings: in vivo
[9] = Volume of distribution at steady state in Beagle dog at 5 mg/kg, po or 1 mg/kg, iv; assay type: ADME, organism-based, Canis lupus familiaris; settings: in vivo, read-out: Vdss
[10] = Half life in Beagle dog at 5 mg/kg, po; assay type: ADME, organism-based, Canis lupus familiaris; set-up: dose 5 mg/kg, route oral; settings: in vivo
[11] = Metabolic stability in rat liver microsomes assessed as half life; assay type: ADME, Microsome

AUC(0-inf) [1]	bioavailability [2]	half-life [3]	clearance [4]	Vd [5]	clearance [6]	AUC(0-inf) [7]	bioavailability [8]	Vd [9]	half-life [10]	half-life [11]	Structure (SMILES)
1720 ng·h/mL	37%	4.1 h	7.5 mL/min/kg	0.3 L/kg	–	–	–	–	–	–	Cc1cc(C)c(NC(=O)Nc2cc3ccccc3cc2C(=O)N[C@](C)(C(=O)O)C2CCCCC2)c(C)c1
4380 ng·h/mL	28%	5.4 h	1.1 mL/min/kg	0.28 L/kg	13 mL/min/kg	620 ng·h/mL	45%	0.5 L/kg	4 h	–	Cc1cc(C)c(NC(=O)Nc2cc3ccccc3cc2C(=O)NC2(C(=O)O)CCCCCCC2)c(C)c1
–	–	–	–	–	–	–	–	–	–	< 0.25 h	Cc1cc(C)c(NC(=O)Nc2cc3ccccc3cc2C(=O)N[C@H](C(=O)O)C2CCCCC2)c(C)c1
